target: T1, Substance-P receptor (Cavia porcellus, UniProt P30547); assay: The compound was evaluated in vitro for the antagonistic activity against Tachykinin receptor 1 in guinea pig myenteric plexus longitudinal muscle strips.; format: functional; conditions: read-out: pA2 (converted)
T1 sequence (P30547 whole entry): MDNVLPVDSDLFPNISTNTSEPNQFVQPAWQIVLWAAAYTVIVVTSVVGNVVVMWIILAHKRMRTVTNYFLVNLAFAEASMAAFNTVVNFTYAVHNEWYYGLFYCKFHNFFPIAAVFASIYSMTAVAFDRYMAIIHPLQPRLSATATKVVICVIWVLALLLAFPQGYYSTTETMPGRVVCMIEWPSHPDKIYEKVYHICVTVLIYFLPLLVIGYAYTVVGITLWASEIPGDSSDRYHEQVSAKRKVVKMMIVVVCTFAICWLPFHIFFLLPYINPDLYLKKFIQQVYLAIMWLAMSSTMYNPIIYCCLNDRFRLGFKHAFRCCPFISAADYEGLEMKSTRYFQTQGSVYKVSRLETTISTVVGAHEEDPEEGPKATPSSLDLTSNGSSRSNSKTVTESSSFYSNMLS

For `CC(C)C[C@H](NC(=O)[C@@H](Cc1c[nH]c2ccccc12)NC(=O)[C@H](Cc1ccccc1)c1cnc([C@H](Cc2c[nH]c3ccccc23)NC(=O)[C@@H]2CCCN2)s1)C(=O)N[C@@H](Cc1ccccc1)C(N)=O`, the Kb was 0.126 µM.

target: T1, Substance-P receptor; assay: The compound was evaluated in vitro for the antagonistic activity against substance P receptor in guinea pig myenteric plexus longitudinal muscle strips.; format: functional; conditions: read-out: pA2 (converted)

First: CC(C)C[C@H](NC(=O)[C@@H](Cc1c[nH]c2ccccc12)NC(=O)[C@H](Cc1ccccc1)c1c[nH]c([C@@H](Cc2c[nH]c3ccccc23)NC(=O)[C@@H]2CCCN2)n1)C(=O)N[C@@H](Cc1ccccc1)C(N)=O
Second: CC(C)C[C@H](NC(=O)[C@@H](Cc1c[nH]c2ccccc12)c1cnc(C(=O)[C@H](Cc2ccccc2)NC(=O)[C@@H](Cc2c[nH]c3ccccc23)NC(=O)[C@@H]2CCCN2)s1)C(=O)N[C@@H](Cc1ccccc1)C(N)=O
The Kb of the first is 6.3-fold lower: 0.2 µM for the first, 1.26 µM for the second.

Compared with `CC(C)C[C@H](NC(=O)[C@@H](Cc1c[nH]c2ccccc12)NC(=O)[C@H](Cc1ccccc1)c1cnc([C@@H](Cc2c[nH]c3ccccc23)NC(=O)[C@@H]2CCCN2)s1)C(=O)N[C@@H](Cc1ccccc1)C(N)=O`, `CC(C)C[C@H](NC(=O)[C@@H](Cc1c[nH]c2ccccc12)NC(=O)[C@H](Cc1ccccc1)c1cnc([C@@H](Cc2c[nH]c3ccccc23)NC(=O)[C@@H]2CCCN2)o1)C(=O)N[C@@H](Cc1ccccc1)C(N)=O` is 13-fold higher in Kb: 0.0398 µM for the first, 0.501 µM for the second.

Compound H-PWFWLF-NH2 has a Kb of 0.398 µM.

From ChEMBL document CHEMBL1126480, “Peptide azoles: A new class of biologically-active dipeptide mmetics” (Bioorg Med Chem Lett, 1993)
